Test results: ChEMBL document CHEMBL4190379 (Bioorg Med Chem Lett, 2018)

Assays:
[1] = target: Bromodomain-containing protein 4 (Homo sapiens, UniProt O60885); assay: Binding affinity to His-tagged BRD4 bromodomain 1 to 2 (K57 to K550 amino acids) (unknown origin) using Alexa647-labeled BET-inhibitor as fluorescent probe by bromodomain TR-FRET binding assay; assay type: single protein
OPM-2 [2] = assay: Antitumor activity against human OPM2 cells xenografted in SCID-beige mouse assessed as inhibition of tumor growth at 7.5 mg/kg, po qd administered for 28 days starting from 18 days post tumor inoculation; assay type: functional; settings: OPM-2, po, read-out: TGI
OPM-2 [3] = assay: Antitumor activity against human OPM2 cells xenografted in SCID-beige mouse assessed as inhibition of tumor growth at 3.75 mg/kg, po qd administered for 28 days starting from 18 days post tumor inoculation; assay type: functional; settings: OPM-2, po, read-out: TGI
[4] = Permeability of the compound by PAMPA method; assay type: ADME; settings: read-out: permeability
[5] = AUC in mouse at 10 mg/kg, po; assay type: ADME, organism-based; settings: in vivo
OPM-2 [6] = assay: Antitumor activity against human OPM2 cells xenografted in SCID-beige mouse assessed as inhibition of tumor growth administered once daily orally for 28 days starting from 18 days post tumor inoculation; assay type: functional, cell-based
[7] = target: T1, Bromodomain-containing protein 7 (Homo sapiens) (UniProt Q9NPI1); assay: Binding affinity to human BRD7 expressed in mammalian system assessed as remaining binding level at 1 uM by BROMOscan assay relative to control
T1 sequence (whole entry): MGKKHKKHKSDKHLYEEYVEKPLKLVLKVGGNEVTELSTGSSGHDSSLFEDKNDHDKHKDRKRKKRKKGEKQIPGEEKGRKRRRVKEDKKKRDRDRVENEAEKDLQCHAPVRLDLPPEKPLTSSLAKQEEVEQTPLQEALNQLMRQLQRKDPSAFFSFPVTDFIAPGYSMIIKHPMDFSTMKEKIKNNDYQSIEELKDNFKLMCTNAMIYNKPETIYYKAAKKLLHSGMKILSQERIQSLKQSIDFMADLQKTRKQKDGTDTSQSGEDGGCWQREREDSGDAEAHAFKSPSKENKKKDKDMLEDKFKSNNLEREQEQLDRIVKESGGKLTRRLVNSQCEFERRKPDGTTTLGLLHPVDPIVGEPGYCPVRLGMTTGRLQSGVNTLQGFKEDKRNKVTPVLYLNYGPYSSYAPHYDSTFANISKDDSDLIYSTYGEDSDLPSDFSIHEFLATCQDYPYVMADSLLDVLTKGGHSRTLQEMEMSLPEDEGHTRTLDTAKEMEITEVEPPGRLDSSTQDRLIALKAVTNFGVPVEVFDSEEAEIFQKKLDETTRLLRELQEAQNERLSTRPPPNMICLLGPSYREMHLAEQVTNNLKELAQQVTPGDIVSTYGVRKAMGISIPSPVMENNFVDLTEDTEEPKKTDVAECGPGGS

[8] = target: T2, E3 ubiquitin-protein ligase TRIM33 (Homo sapiens) (UniProt Q9UPN9); assay: Binding affinity to human TRIM33-phd-bromo expressed in bacterial system assessed as remaining binding level at 1 uM by BROMOscan assay relative to control
T2 sequence (whole entry): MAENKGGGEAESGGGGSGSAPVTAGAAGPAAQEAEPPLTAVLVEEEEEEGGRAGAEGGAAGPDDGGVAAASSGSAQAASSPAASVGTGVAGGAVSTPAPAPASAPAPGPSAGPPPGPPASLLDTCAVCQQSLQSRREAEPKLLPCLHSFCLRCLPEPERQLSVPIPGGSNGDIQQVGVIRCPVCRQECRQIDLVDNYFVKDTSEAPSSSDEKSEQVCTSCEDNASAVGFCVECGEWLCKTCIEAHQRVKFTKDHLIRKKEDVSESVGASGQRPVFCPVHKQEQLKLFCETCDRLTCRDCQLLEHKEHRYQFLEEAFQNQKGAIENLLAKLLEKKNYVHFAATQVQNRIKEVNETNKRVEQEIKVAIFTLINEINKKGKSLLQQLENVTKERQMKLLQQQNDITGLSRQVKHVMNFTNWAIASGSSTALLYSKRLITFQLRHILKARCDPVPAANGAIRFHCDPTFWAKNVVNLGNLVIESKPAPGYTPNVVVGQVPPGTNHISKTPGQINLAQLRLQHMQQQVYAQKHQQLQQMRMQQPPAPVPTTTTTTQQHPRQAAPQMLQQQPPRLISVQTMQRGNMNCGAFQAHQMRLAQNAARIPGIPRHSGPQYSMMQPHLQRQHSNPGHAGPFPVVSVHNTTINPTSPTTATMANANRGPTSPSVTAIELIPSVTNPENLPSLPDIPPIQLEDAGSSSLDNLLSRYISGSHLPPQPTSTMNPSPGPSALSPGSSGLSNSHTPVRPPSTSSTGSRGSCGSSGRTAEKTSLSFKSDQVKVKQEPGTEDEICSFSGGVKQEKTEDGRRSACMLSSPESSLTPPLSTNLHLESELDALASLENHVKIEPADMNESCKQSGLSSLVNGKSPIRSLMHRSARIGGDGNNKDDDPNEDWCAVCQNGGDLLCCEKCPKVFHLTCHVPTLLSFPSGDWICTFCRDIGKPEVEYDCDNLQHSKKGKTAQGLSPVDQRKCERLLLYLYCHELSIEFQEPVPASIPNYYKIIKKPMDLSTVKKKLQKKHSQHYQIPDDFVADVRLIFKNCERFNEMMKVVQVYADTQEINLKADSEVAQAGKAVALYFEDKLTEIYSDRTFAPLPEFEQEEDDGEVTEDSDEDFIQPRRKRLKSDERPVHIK

[9] = target: Transcription initiation factor TFIID subunit 1-like (Homo sapiens) (UniProt Q8IZX4); assay: Binding affinity to human TAF1L bromodomain 2 expressed in bacterial system assessed as remaining binding level at 1 uM by BROMOscan assay relative to control
Sequence of Transcription initiation factor TFIID subunit 1-like (Homo sapiens) (Q8IZX4 whole entry, the tested form may be a part): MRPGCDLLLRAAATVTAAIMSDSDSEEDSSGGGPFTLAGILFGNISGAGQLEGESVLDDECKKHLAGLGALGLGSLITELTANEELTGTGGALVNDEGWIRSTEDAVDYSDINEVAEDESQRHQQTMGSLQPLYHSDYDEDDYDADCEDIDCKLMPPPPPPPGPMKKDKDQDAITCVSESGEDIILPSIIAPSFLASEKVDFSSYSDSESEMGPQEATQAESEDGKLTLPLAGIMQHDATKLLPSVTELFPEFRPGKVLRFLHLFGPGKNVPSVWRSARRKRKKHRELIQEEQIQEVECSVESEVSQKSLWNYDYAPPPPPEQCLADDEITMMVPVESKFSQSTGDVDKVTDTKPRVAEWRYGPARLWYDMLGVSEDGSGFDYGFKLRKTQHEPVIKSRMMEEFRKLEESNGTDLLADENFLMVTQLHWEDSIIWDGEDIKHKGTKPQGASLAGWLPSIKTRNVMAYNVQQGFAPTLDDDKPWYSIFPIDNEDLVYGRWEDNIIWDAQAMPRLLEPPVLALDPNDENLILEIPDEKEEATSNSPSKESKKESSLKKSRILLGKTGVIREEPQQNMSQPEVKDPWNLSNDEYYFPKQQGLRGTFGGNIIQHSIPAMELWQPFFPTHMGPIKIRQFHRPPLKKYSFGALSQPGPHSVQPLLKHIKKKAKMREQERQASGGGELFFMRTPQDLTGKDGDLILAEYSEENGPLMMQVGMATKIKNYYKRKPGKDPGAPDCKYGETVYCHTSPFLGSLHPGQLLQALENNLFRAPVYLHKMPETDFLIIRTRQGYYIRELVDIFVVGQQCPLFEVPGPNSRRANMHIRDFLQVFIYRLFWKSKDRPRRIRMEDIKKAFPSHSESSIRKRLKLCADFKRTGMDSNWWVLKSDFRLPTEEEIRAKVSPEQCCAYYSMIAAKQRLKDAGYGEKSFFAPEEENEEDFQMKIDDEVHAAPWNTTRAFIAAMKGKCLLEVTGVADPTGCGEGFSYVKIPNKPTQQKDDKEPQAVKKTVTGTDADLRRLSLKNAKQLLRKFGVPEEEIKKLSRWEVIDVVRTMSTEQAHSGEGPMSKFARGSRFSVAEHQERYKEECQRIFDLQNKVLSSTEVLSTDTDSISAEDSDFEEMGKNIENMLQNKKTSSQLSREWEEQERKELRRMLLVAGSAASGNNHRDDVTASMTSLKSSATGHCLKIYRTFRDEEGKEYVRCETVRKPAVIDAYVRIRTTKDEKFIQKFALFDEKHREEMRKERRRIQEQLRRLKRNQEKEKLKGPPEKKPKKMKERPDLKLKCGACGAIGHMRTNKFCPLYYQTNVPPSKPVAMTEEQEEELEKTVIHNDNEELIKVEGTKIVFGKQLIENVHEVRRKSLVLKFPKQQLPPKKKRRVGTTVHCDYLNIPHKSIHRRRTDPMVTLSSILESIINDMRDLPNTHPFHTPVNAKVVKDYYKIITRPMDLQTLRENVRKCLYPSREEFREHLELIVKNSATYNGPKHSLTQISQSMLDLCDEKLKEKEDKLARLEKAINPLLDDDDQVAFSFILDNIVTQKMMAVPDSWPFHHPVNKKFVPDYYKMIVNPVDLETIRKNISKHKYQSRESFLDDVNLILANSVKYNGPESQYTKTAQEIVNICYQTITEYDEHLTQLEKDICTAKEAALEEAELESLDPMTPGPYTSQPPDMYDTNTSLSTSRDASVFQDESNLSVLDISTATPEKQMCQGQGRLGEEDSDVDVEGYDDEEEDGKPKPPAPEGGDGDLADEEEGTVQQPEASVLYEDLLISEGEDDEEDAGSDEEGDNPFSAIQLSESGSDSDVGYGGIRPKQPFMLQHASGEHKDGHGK

[10] = target: Bromodomain-containing protein 2 (Homo sapiens, UniProt P25440); assay: Binding affinity to BRD2 bromodomain 1 to 2 (G73 to A560 amino acids) (unknown origin) using Alexa647-labeled BET-inhibitor as fluorescent probe by bromodomain TR-FRET binding assay
Sequence of Bromodomain-containing protein 2 (P25440 whole entry, the tested form may be a part): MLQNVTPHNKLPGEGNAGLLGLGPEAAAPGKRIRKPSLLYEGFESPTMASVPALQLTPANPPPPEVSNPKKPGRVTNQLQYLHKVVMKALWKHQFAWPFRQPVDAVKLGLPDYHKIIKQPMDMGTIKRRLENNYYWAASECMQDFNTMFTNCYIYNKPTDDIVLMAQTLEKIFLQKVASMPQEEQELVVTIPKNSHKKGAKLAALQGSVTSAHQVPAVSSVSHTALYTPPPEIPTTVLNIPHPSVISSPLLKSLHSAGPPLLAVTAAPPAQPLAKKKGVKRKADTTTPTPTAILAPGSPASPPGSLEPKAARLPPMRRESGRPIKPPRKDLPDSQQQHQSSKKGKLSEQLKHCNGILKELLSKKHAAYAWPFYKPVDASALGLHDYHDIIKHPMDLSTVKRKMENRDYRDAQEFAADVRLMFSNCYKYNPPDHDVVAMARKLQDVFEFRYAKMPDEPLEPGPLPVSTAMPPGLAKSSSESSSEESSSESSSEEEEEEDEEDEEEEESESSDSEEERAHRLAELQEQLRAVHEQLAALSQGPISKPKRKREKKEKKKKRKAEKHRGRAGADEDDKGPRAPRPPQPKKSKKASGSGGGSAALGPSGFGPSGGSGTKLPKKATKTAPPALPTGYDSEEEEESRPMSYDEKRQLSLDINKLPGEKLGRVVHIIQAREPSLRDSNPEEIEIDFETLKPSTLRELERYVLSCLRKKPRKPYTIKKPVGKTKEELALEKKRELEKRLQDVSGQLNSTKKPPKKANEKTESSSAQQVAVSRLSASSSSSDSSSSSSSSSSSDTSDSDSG

Mus musculus [11] = assay: Toxicity in human OPM2 cells xenografted SCID-beige mouse assessed as body weight loss at 0.62 mg/kg, po qd administered for 28 days starting from 18 days post tumor inoculation; assay type: organism-based; settings: in vivo
Mus musculus [12] = assay: Toxicity in human OPM2 cells xenografted SCID-beige mouse assessed as morbidity at 0.31 mg/kg, po qd administered for 28 days starting from 18 days post tumor inoculation; assay type: organism-based; settings: in vivo
OPM-2 [13] = assay: Antitumor activity against human OPM2 cells xenografted in SCID-beige mouse assessed as inhibition of tumor growth at 0.31 mg/kg, po qd administered for 28 days starting from 18 days post tumor inoculation; assay type: functional; settings: OPM-2, po, read-out: TGI
Mus musculus [14] = assay: Toxicity in human OPM2 cells xenografted SCID-beige mouse assessed as body weight loss at 0.31 mg/kg, po qd administered for 28 days starting from 18 days post tumor inoculation; assay type: organism-based; settings: in vivo
Mus musculus [15] = assay: Dose normalized AUC in mouse at 1 mg/kg, po; assay type: ADME, organism-based; settings: in vivo
OPM-2 [16] = assay: Antitumor activity against human OPM2 cells xenografted in SCID-beige mouse assessed as inhibition of tumor growth at 0.62 mg/kg, po qd administered for 28 days starting from 18 days post tumor inoculation; assay type: functional; settings: OPM-2, po, read-out: TGI

Row | Ki [1] | Papp [4] | AUC [5] | Activity [7] | Activity [8] | Activity [9] | Ki [10] | AUC/dose (Mus musculus [15]) | SMILES | inhibition in vivo at 7.5 mg/kg (OPM-2 [2]) | inhibition in vivo at 3.75 mg/kg (OPM-2 [3]) | TGI (OPM-2 [6]) | Activity (Mus musculus [11]) | Activity (Mus musculus [12]) | inhibition in vivo at 0.31 mg/kg (OPM-2 [13]) | Activity (Mus musculus [14]) | inhibition in vivo at 0.62 mg/kg (OPM-2 [16])
1 | 3.3 nM | 5.1 ×10⁻⁶ cm/s | 2.8 µM·h | 100% | 100% | 85% | 2.6 nM | – | Cn1cc2c3c(c[nH]c(=O)c31)-c1cc(CS(C)(=O)=O)ccc1N(c1ccc(F)cc1)C2 | 84% | 68% | Dose-dependent effect | – | – | – | – | –
2 | 0.62 nM | 6 ×10⁻⁶ cm/s | – | 96% | 83% | 32% | 0.48 nM | 3.5 µM·h | Cn1cc2c3c(c[nH]c3c1=O)CN(c1ccccn1)c1ccc(CS(C)(=O)=O)cc1-2 | – | – | Dose-dependent effect | 5% | Non-Toxic | 60% | 0% | 94%
3 | 0.87 nM | 13 ×10⁻⁶ cm/s | 12 µM·h | 92% | 85% | 18% | 2.5 nM | – | Cn1cc2c3c(c[nH]c3c1=O)CN(c1ccc(F)cc1F)c1ccc(CS(C)(=O)=O)cc1-2 | – | – | – | – | – | – | – | –
